Assay results: PubChem BioAssay AID1552 (Sanford-Burnham Center for Chemical Genomics, 2009)
Activity calls are given as the source filed them. No rule for the calls is given here.

target: Ubiquitin-conjugating enzyme E2 N (Homo sapiens) (UniProt P61088); assay: NMR detection of UBE2N ligand binding – biophysical, purified protein (AID 1552); conditions: NMR binding to purified UBE2N
Sequence (P61088 whole entry, looked up): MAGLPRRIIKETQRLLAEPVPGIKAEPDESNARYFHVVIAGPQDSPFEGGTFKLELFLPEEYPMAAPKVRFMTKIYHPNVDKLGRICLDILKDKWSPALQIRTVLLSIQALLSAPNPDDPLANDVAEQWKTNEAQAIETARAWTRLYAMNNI

Structure (SMILES) | Kd
Cn1c(=O)c2ccccc2n(Cc2ccccc2F)c1=O | > 4 mM (inactive)
CC(=O)N1CC2(C)CN(C(C)=O)CC(C)(C1)C2O (centres undefined) | > 4 mM (inactive)
CC1=C(CCC(=O)O)c2cc3nc(cc4[nH]c(cc5[nH]c(cc1n2)c(C)c5C(C)O)c(C)c4C(C)O)C(C)=C3CCC(=O)O (centres undefined) | > 4 mM (inactive)
CC(=O)NC12CC3CC(C)(C1)CC(NC(C)=O)(C3)C2 | > 4 mM (inactive)
NC(=O)C1CCN(C(=O)Nc2ccccc2)CC1 | > 4 mM (inactive)
c1ccc(-c2nnc(CNCc3ccco3)o2)cc1 | > 4 mM (inactive)
CN1CCN(c2cc(=O)n(C)c(=O)[nH]2)CC1 | > 4 mM (inactive)
Cc1nc2ccccc2c2c1C(=O)N(C)C2=O | > 4 mM (inactive)
OC[C@H]1O[C@@H](Oc2ccc(O)cc2)[C@H](O)[C@@H](O)[C@@H]1O | > 4 mM (inactive)
CSc1nn(-c2ccccc2)c(N)c1C#N | > 4 mM (inactive)
NC(=O)c1ccccc1NC(=O)C1CC1 | > 4 mM (inactive)
O=[n+]1cc(C2=CC=CCC2)n([O-])c2c1CCCCC2 | > 4 mM (inactive)
O=c1[nH]cc(N2CCCCC2)c(=O)[nH]1 | > 4 mM (inactive)
OCC1CCCN2CCCCC12 (centres undefined) | > 4 mM (inactive)
O=c1[nH]c(=S)[nH]c2c1CCC2 | > 4 mM (inactive)
Oc1ccc2nonc2c1 | > 4 mM (inactive)
O=c1/c(=C\c2cccnc2)sc2nc3ccccc3n12 | > 4 mM (inactive)
CC1(C)C2CC(=O)[C@]3(C)C(CC[C@@]4(C)[C@H](c5ccoc5)OC(=O)C5OC543)[C@@]2(C)[C@@H](O)C[C@H]1O (some centres undefined) | > 4 mM (inactive)
Cc1cc(SCC(=O)Nc2nccs2)nc(=O)[nH]1 | > 4 mM (inactive)
CC(C)(C)c1cc(CN)c(C(=O)O)o1 | > 4 mM (inactive)
O=c1ccc2cc(O[C@@H]3O[C@H](CO)[C@@H](O)[C@H](O)[C@H]3O)c(O)cc2o1 | > 4 mM (inactive)
O=C(O)Cc1nc(-c2ccncc2)n[nH]1 | > 4 mM (inactive)
COC1C(O)C(O)C(O)[C@@H](O)C1O (some centres undefined) | > 4 mM (inactive)

Structure (SMILES) | Kd
CC(=O)N=c1cccc(NC(C)=O)n1O | > 4 mM (inactive)
NC(=O)C1CCN(c2ncnc(N)c2[N+](=O)[O-])CC1 | > 4 mM (inactive)
NC(=O)C1CCN(C(=S)Nc2ccccc2)CC1 | > 4 mM (inactive)
O=C1c2ccc(F)cc2C(=O)N1CO | > 4 mM (inactive)
O=C(Cc1c(F)cccc1Cl)Nc1ccon1 | > 4 mM (inactive)
Cc1occc1C(=O)Nc1ccc2c(c1)CCC2 | > 4 mM (inactive)
OCc1nc2ccccc2s1 | > 4 mM (inactive)
O=C(NCc1ccco1)c1nc2ncccn2n1 | > 4 mM (inactive)
Cc1cc2ncn(S(=O)(=O)N3CCOCC3)c2cc1C | > 4 mM (inactive)
CCNC(=S)N1CCC(C(N)=O)CC1 | > 4 mM (inactive)
O=C(O)C(Cc1cnc[nH]1)N1C(=O)c2ccccc2C1=O (centres undefined) | > 4 mM (inactive)
COc1c(O)cc2c(-c3ccccc3)cc(=O)oc2c1OC | > 4 mM (inactive)
CC(CO)NC(=O)C1C=C2c3cccc4[nH]cc(c34)C[C@H]2N(C)C1 (some centres undefined) | > 4 mM (inactive)
CC1(C)CN=C(Nc2nc3ccccc3s2)S1 | > 4 mM (inactive)
C=CC(C1=CC(=O)C=CC1=O)c1ccccc1 (centres undefined) | > 4 mM (inactive)
Cc1cc2c(N)cccc2nn1 | > 4 mM (inactive)
O=C1Cn2c(nc3ccccc32)N1c1ccccc1F | > 4 mM (inactive)
CNC(=O)Nc1ccc(C(=O)NC)cc1 | > 4 mM (inactive)
CCCn1cnc2sc(C(N)=O)c(C)c2c1=O | > 4 mM (inactive)
CC(=O)OC[C@H]1O[C@@H](Oc2cc(OC(C)=O)c3c(=O)cc(-c4ccc(OC(C)=O)cc4)oc3c2)[C@H](OC(C)=O)[C@@H](OC(C)=O)[C@@H]1OC(C)=O | > 4 mM (inactive)
CC(=O)c1ccc(NC(=S)N2CCC(O)CC2)cc1 | > 4 mM (inactive)
CC(C)CCCC1(C)C=Cc2c(O)c3c(c(CCC(C)C)c2O1)OC12C(CC4CC1C(C)(C)OC2(CCC(C)C(=O)O)C4O)C3=O (centres undefined) | > 4 mM (inactive)
COc1ccc(C(=O)/C=C2\NC(=S)NC2=O)cc1 | > 4 mM (inactive)

Structure (SMILES) | Kd
O=C(Nn1c(=S)[nH]c2ccccc2c1=O)c1ccncc1 | > 4 mM (inactive)
CC(C)(CO)NC(=O)c1ccccc1F | > 4 mM (inactive)
O=C(NN=C1CCCC1)c1ccncc1 | > 4 mM (inactive)
NC(=O)Cn1cnc2c(cnn2-c2ccccc2)c1=O | > 4 mM (inactive)
CC(=O)c1cccc(NS(=O)(=O)N2CCCCC2)c1 | > 4 mM (inactive)
CSc1ccc(/C=c2\sc3ncnn3c2=O)cc1 | > 4 mM (inactive)
CC(C)(C)NC(=O)N1CCC(C(=O)O)CC1 | > 4 mM (inactive)
CC(=O)c1cccc(NC(=O)C=C(C)C)c1 | > 4 mM (inactive)
OC1COCc2nc3ccccc3n2C1 (centres undefined) | > 4 mM (inactive)
Nc1cccc2c(=O)[nH][nH]c(=O)c12 | > 4 mM (inactive)
CC(=O)Oc1cc2c(c(C)c1OC(C)=O)CC=C1[C@@]2(C)CC[C@@]2(C)C3C[C@](C)(C(=O)O)CC[C@]3(C)CC[C@]12C (some centres undefined) | > 4 mM (inactive)
c1ccc(Cn2c(Nn3cnnc3)nc3ccccc32)cc1 | > 4 mM (inactive)
CCSc1nc(C)c(CC)c(C)c1C(N)=O | > 4 mM (inactive)
NC(=O)NC1C=CS(=O)(=O)C1 (centres undefined) | > 4 mM (inactive)
CC1CC[C@]2(NC1)O[C@H]1CC3C4CC[C@H]5C[C@@H](O)CC[C@]5(C)C4CC[C@]3(C)[C@H]1[C@@H]2C (some centres undefined) | > 4 mM (inactive)
O=C(O)C1(S(=O)(=O)c2ccccc2)CC1 | > 4 mM (inactive)
NC(=O)CC1NC(=O)c2ccccc21 (centres undefined) | > 4 mM (inactive)
O=C1C=CC2=C3c4cc(O)c(O)cc4CC3(O)COC2=C1O (centres undefined) | > 4 mM (inactive)
COc1ccc(C(O)c2nccn2C)cc1 (centres undefined) | > 4 mM (inactive)
CCOC(=O)Cc1cc(=O)n2[nH]c(C)cc2n1 | > 4 mM (inactive)
CC(C)=CCc1c(O)cc2oc(C)cc(=O)c2c1O | > 4 mM (inactive)
CC(=O)O[C@H]1C[C@@H](OC(C)=O)C(C)(C)C2C[C@@H](O)[C@]3(C)C(CC[C@@]4(C)[C@H](c5ccoc5)OC(=O)[C@H]5O[C@]543)[C@]21C (some centres undefined) | > 4 mM (inactive)
Nc1ccc(-c2cnco2)cc1 | > 4 mM (inactive)

Structure (SMILES) | Kd
Cc1csc(NC(=O)c2ccoc2C)n1 | > 4 mM (inactive)
O=C(Nc1ccc2c(c1)CCC2)c1cnccn1 | > 4 mM (inactive)
O=C1NC(=S)N/C1=C/c1ccsc1 | > 4 mM (inactive)
CC(C)=NNC(=O)C(=O)NC(C)(C)C | > 4 mM (inactive)
CC1(C)C(=O)CC[C@@]2(C)C1C[C@@H](O)[C@@]1(C)C3=CC(=O)O[C@@H](c4ccoc4)[C@]3(C)CCC21 (some centres undefined) | > 4 mM (inactive)
COc1c(-c2ccccc2)oc2c(OC)cccc2c1=O | > 4 mM (inactive)
CC(C)(C)NC(=O)CN1C(=O)c2ccccc2S1(=O)=O | > 4 mM (inactive)
CC(=O)Nc1nnc(-c2ccco2)o1 | > 4 mM (inactive)
Cc1c(F)cccc1NS(=O)(=O)c1ccccc1C#N | > 4 mM (inactive)
O=C(c1ccccc1)c1ccccc1C(=O)N1CCOCC1 | > 4 mM (inactive)
CCOC(=O)c1cnn2ccccc12 | > 4 mM (inactive)
CCOC(=O)Nc1ccc2c(C)cc(=O)oc2c1 | > 4 mM (inactive)
Nc1nc(-c2ccccc2)ns1 | > 4 mM (inactive)
O=C(Nc1c[nH]c(=O)[nH]c1=O)c1cccs1 | > 4 mM (inactive)
NC(=O)C1CCN(C(=O)c2ccco2)CC1 | > 4 mM (inactive)
O=C(NCc1n[nH]c(=O)c2ccccc12)C1CC1 | > 4 mM (inactive)
CC(=O)Nc1ccc(NC(=O)C2CC2)cc1 | > 4 mM (inactive)
NCc1csc2ccccc12 | > 4 mM (inactive)
O=C(Nc1cnccn1)c1ccncc1 | > 4 mM (inactive)
Cc1cc(N2CCCC2=O)c(N)cc1N | > 4 mM (inactive)
CC(=O)O[C@H]1CC[C@@]2(C)C(=CC(=O)C3C4CCC(C(C)CCCC(C)C)[C@@]4(C)CCC32)C1 (some centres undefined) | > 4 mM (inactive)
O=C(Nc1cccnc1)c1cnn2cccnc12 | > 4 mM (inactive)
COc1cccc(/C=N/N=C2/NC(=O)CS2)c1 | > 4 mM (inactive)

Structure (SMILES) | Kd
NC(=O)c1ccc(NC(=O)c2cccnc2)cc1 | > 4 mM (inactive)
COc1ccc(-c2cc(=O)c3c(OC)c(OC)c(OC)c(OC)c3o2)cc1 | > 4 mM (inactive)
O=C(CSc1ncn[nH]1)c1ccc2c(c1)OCCO2 | > 4 mM (inactive)
Nc1ccc2c(c1)C(=O)OC2 | > 4 mM (inactive)
CC1CN(Cc2ccccn2)CCC1=O (centres undefined) | > 4 mM (inactive)
O=C(c1cc2ccccc2o1)N1CCCCCC1 | > 4 mM (inactive)
COc1ccc2c3c1O[C@H]1C[C@@H](O)C=C[C@@]31CCN(C)C2 | > 4 mM (inactive)
Brc1cccc(-c2nnco2)c1 | > 4 mM (inactive)
COc1ccc2nc(N)sc2n1 | > 4 mM (inactive)
CCOc1ccc(C)cc1S(=O)(=O)n1ccc(C)n1 | > 4 mM (inactive)
Cc1cc(C)nc(/N=C(/N)N2CCN(C)CC2)n1 | > 4 mM (inactive)
C/C=C(\C)C(=O)OC1[C@@H]2C=C3C(CC[C@]4(C)C3CC(=O)O[C@H]4c3ccoc3)C(C)(C2=O)[C@@H](C(O)C(=O)OC)C1(C)C (some centres undefined) | > 4 mM (inactive)
Oc1ccc2c(c1)OCO2 | > 4 mM (inactive)
O=C(Nc1ccncc1)c1c(F)cccc1F | > 4 mM (inactive)
CCOC(=O)c1cnc2sccn2c1=O | > 4 mM (inactive)
N#Cc1cnn(-c2ccc(Cl)cc2)c1N | > 4 mM (inactive)
NS(=O)(=O)c1ccc(NC(=O)/C=C\C(=O)O)cc1 | > 4 mM (inactive)
Cc1ccnc(NS(=O)(=O)c2ccccc2)n1 | > 4 mM (inactive)
Cc1cccc(CO)n1 | > 4 mM (inactive)
NCc1ccc(-c2csnn2)cc1 | > 4 mM (inactive)
CN(C)S(=O)(=O)N1CCc2ccccc21 | > 4 mM (inactive)
O=C(Nc1ccc(N2CCCC2=O)cc1)c1cccc(F)c1 | > 4 mM (inactive)
